Source: patent publication US5763441A, “Compounds for the treatment of disorders related to vasculogenesis and/or angiogenesis” (Sugen, Inc., priority 1995, dated 1998)

Tests used:
[1] = test system: VEGF-induced "reddening" response and subsequent swelling (FLK-1 receptor); assay: In vivo VEGF pellet model; design: species or system nude mice (Balb/C athymic nu/nu); settings: scored at 24 hours and 48 hours; drug in methylcellulose disc near VEGF pellet
Description: In this model, VEGF is packaged into a time-release pellet and implanted subcutaneously on the abdomen of nude mice to induce a `reddening` response and subsequent swelling around the pellet. Potential FLK-1 inhibitors may then be implanted in methylcellulose near the VEGF pellet ito determine whether such inhibitor may be used to inhibit the "reddening" response and subsequent swelling.
1) VEGF--human recombinant lyophilized product is commercially may be obtained from Peprotech, Inc., Princeton Business Park, G2; P.O. box 275, Rocky Hill, N.J. 08553.
2) VEGF packaged into 21 day release pellets were obtained from Innovative Research of America, using patented matrix driven delivery system. Pellets were packaged at […], 0.21, or 2.1 μg VEGF/pellet. These doses approximate 10 and 100 ng/day release of VEGF. (Innovative Research of America, 3361 Executive Parkway, P.O. box 2746, Toledo, Ohio 43606)
Protocol. The following protocol was then followed to conduct the VEGF pellet model:
1) VEGF, purchased from Peprotech, was sent to Innovative Research for Custom Pellet preparation;
2) Methylcellulose prepared at 1.5% (w/v) in sterile water;
3) Drugs solublized in methanol (usual concentration range=10 to 20 mg/ml);
4) Place sterile parafilm in sterile 10 cm plates; […]
9) Mice were scored at 24 hours and 48 hours for reddening and swelling response. […]

[2] = target: T1, FLK-1 receptor (Mus musculus, UniProt P35918); assay: ELISA assay to measure kinase activity of FLK-1 receptor in FLK-1/NIH cells; type: cell-based, murine
T1 construct: expressed in transfected cells; host or cells: NIH3T3C7#3 cells (FLK-1 infected NIH3T3)
T1 sequence (P35918 20-1345): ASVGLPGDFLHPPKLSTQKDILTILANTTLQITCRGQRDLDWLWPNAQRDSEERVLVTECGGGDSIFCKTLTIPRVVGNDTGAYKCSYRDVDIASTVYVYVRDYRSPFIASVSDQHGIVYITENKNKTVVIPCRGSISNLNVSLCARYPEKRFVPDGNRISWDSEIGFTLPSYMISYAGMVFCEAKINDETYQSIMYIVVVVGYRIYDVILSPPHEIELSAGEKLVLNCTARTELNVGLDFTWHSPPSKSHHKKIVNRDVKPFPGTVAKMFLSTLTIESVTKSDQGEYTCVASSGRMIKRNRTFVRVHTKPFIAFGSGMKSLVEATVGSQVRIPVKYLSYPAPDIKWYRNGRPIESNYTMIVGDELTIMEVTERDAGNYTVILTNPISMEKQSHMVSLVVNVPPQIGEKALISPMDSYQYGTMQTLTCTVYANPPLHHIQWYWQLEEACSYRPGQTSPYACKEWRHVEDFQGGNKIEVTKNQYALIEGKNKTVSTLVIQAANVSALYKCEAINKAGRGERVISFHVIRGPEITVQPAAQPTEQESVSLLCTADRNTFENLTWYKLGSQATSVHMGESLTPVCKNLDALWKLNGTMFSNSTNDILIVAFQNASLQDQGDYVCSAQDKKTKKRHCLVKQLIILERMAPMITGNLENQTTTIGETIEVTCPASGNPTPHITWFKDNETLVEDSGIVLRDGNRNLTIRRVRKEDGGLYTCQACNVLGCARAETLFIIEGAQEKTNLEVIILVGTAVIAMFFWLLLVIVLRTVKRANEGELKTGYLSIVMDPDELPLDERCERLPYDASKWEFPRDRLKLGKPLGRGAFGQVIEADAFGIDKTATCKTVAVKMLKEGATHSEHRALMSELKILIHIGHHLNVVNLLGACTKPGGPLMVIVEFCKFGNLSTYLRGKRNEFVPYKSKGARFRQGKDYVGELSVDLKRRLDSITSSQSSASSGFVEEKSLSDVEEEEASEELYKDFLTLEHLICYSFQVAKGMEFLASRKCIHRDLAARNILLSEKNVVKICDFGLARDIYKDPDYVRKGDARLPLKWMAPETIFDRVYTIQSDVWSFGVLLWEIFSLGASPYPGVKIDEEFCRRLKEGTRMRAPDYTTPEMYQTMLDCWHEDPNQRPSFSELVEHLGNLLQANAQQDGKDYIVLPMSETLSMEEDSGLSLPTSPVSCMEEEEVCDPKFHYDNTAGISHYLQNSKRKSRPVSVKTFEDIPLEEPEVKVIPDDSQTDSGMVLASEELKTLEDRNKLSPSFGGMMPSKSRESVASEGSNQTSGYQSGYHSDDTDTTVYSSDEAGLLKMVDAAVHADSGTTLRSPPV
Method: ELISA Assay To Measure Kinase Activity Of FLK-1 Receptor In FLK-1/NIH Cells
An ELISA assay was conducted to measure the kinase activity of the FLK-1 receptor and more specifically, the inhibition or activiation of protein tyrosine kinase activity on the FLK-1 receptor.
k. NIH3T3C7#3 Cells (FLK-1 infected cells);
Protocol. The following protocol was used to conduct the ELISA Assay:
1. Coat Corning 96-well elisa plates with 1.0 ug per well Cappel Anti-rabbit IgG antibody in 0.1M Na2CO3 pH 9.6. Bring final volume to 150 ul per well. Coat plates overnight at 4° C. Plates can be kept up to two weeks when stored at 4° C.
2. Grow cells in 30 ml of Growth media 9DMEM. 2.0 mM L-Glutamine, 10% FBS) until confluent in 150 cm tissue culture dishes at 37° C., 5% CO2.
3. Harvest cells by tyrpsination and seed in Corning 25850 polystyrene 96-well roundbottom cell plates, 25.000 cells/well in 200 uL of growth media.
4. Grow cells at least one day at 37° C., 5% CO2.
5. Wash cells with D-PBS 1X.
6. Add 200 ul/well of starvation media (DMEM, 2.0 mM l-Glutamine, 0.1% FBS). Incubate overnight at 37° C., 5% CO2.
7. Dilute Compounds/Extracts 1:20 in polyproplyene 96 well plates using starvation media. Dilute dimethylsulfoxide 1:20 for use in control wells.
8. Remove starvation media from 96 well cell culture plates and add 162 ul of fresh starvation media to each well.
9. Add 18 ul of 1:20 diluted Compound/Extract dilution (from step #7) to each well plus the 1:20 dimethylsulfoxide dilution to the control wells (+/-VEGF), for a final dilution of 1:200 after cell stimulation. Final dimethylsulfoxide is 0.5%. Incubate the plate at 37° C., 5% CO2 for two hours.
10. Remove unbound antibody from Elisa plates by inverting plate to remove liquid. Wash 3 times with TBSW+0.5% Ethanolamine, pH 7.0. Pat the plate on a paper towel to remove excess liquid and bubbles.
11. Block plates with TBSW+0.5% Ethanolamine, pH 7.0. 150 ul per well. Incubate plate thirty minutes while shaking on a microtiter plate shaker.
12. Wash plate 3 times as described in step 10.
13. Add 0.5 ug/well affinity purified anti-flk-1 polyclonal rabbit antiserum. Bring final volume to 150 ul/well with TBSW+0.5k Ethanolamine pH 7.0. Incubate plate for thirty minutes while shaking.
14. Add 180 μl starvation medium to the cells and stimulate cells with 20 ul/well 10.0 mM Sodium Ortho Vanadate and 500 ng/ml VEGF (resulting in a final concentration of 1.0 mM Sodium Ortho Vanadate and 50 ng/ml VEGF per well) for eight minutes at 37° C., 5% CO2. Negative control wells receive only starvation medium.
15. After eight minutes, media are removed from the cells and washed one time with 200 ul/well PBS.
16. Lyse cells in 150 ul/well HNTG while shaking at room temperature for five minutes. HNTG formulation includes sodium ortho vanadate, sodium pyro phosphate and EDTA.
17. Wash Elisa plate three times as described in step 10.
18. Transfer cell lysates from the cell plate to elisa plate and incubate while shaking for two hours. To transfer cell lysate pipette up and down while scrapping the wells.
19. Wash plate three times as described in step 10.
20. Incubate Elisa plate with 0.02 ug/well UB40 in TBSW+05% ethanolamine. Bring final volume to 150 ul/well. Incubate while shaking for 30 minutes.
21. Wash plate three times as described in step 10.
22. Incubate elisa plate with 1:10,000 diluted EIA grade Goat anti-mouse IgG conjugated horseradish peroxidase in TBSW+0.5% ethanolamine, pH 7.0. Bring final volume to 150 ul/well. Incubate while shaking for thirty minutes.
23. Wash plate as described in step 10.
24. Add 100 ul of ABTS/H202 solution to well. Incubate ten minutes while shaking.
25. Add 100 ul of 0.2M HCL for 0.1M HCL final to stop the colordevelopment reaction. Shake 1 minute at room temperature. Remove bubbles with slow stream of air and read the ELISA plate in an ELISA plate reader at 410 nm.

[3] = test system: PA-1; assay: Tumor xenograft growth inhibition, PA-1 (ovarian); type: in vivo, human
Method: (§1) The ability of one of the compounds of the present invention, leflunomide (Compound 40), to inhibit ovarian, melanoma, prostate, lung and mammary tumor cell lines established as SC xenografts was examined. These studies were conducted using doses ranging from 12 to 20 mg/kg/day.
(§2) The tumor cells were implanted subcutaneously into the indicated strains of mice. Treatment was initiated on day 1 post implantation unless otherwise indicated (e.g. treatment of the SCID mouse related to the A375 melanoma cell line began on Day 9). Eight (8) to ten (10) mice comprised each test group.
Animals. Female athymic mice (BALB/c, nu/nu), BALB/c mice, Wistar rats and Fisher 344 rats were obtained from Simonsen Laboratories (Gilroy, Calif.). Female A/I mice were obtained from Jackson Laboratory (Bar Harbor, Me.). DA rats were obtained from B&K Universal, Inc. (Fremont, Calif.). Athymic R/Nu rats, DBA/2N mice, and BALB/c mice were obtained from Harlan Sprague Dawley (Indianapolis, Ind.). […]
Subcutaneous Xenograft Model. […] Tumor growth was measured over 3 to 6 weeks using venier calipers tumor volumes were calculated as a product of length x width x height unless otherwise indicated. P values were calculated using the Students' t-test. su101 in 50-100 uL excipient (dimethylsulfoxide, PBTE, PBTE6C:D5W, or PBTE:D5W) was delivered by IP injection at concentrations indicated in the Figure legends.

[4] = test system: A375; assay: Tumor xenograft growth inhibition, A375 (melanoma); type: in vivo, human; settings: for % Inhibition (day): day 31
Method: as §1, §2
(§3) Animals. Female athymic mice (BALB/c, nu/nu), BALB/c mice, Wistar rats and Fisher 344 rats were obtained from Simonsen Laboratories (Gilroy, Calif.). Female A/I mice were obtained from Jackson Laboratory (Bar Harbor, Me.). DA rats were obtained from B&K Universal, Inc. (Fremont, Calif.). Athymic R/Nu rats, DBA/2N mice, and BALB/c mice were obtained from Harlan Sprague Dawley (Indianapolis, Ind.). Female C57BL/6 mice were obtained from Taconic (Germantown, N.Y.). All animals were maintained under clean-room conditions in Micro-isolator cages with Alpha-dri bedding. They received sterile rodent chow and water ad libitum.
(§4) Subcutaneous Xenograft Model. Cell lines were grown in appropriate medium as described (See Section 6). Cells were harvested at or near confluency with 0.05% Trypsin-EDTA and pelleted at 450×g for 10 min. Pellets were resuspended in sterile PBS or media (without FBS) to a suitable concentration indicated in the Figure legends and the cells were implanted into the hindflank of mice. Tumor growth was measured over 3 to 6 weeks using venier calipers tumor volumes were calculated as a product of length x width x height unless otherwise indicated. P values were calculated using the Students' t-test. su101 in 50-100 uL excipient (dimethylsulfoxide, PBTE, PBTE6C:D5W, or PBTE:D5W) was delivered by IP injection at concentrations indicated in the Figure legends.

[5] = test system: PC-3; assay: Tumor xenograft growth inhibition, PC-3 (prostate); type: in vivo, human
Method: as §1, §2, §3, §4

[6] = test system: Calu-6; assay: Tumor xenograft growth inhibition, Calu-6 (lung); type: in vivo, human
Description: The ability of one of the compounds of the present invention, leflunomide (Compound 40), to inhibit ovarian, melanoma, prostate, lung and mammary tumor cell lines established as SC xenografts was examined. […]
as §2, §3, §4

Row | SMILES | inhibition of the "reddening" response and subsequent swelling [1] | IC50 [2] [µM] | inhibition of the growth of human ovarian (PA-1) ([3]; in words) | % Inhibition (day) ([3]; nu/nu, 20 mg/kg/day, day 36, P < 0.04) [%] | % Inhibition (day) ([4]; SCID (day 9), 15 mg/kg/day, P < 0.002) [%] | inhibition of the growth of human melanoma (A375) ([4]; in words) | % Inhibition (day) ([4]; nu/nu, 20 mg/kg/day, P < 0.03) [%] | % Inhibition (day) ([5]; SCID (day 15), 12 mg/kg/day, day 36, P < 0.001) [%] | inhibition of the growth of human prostate (PC-3) ([5]; in words) | % Inhibition (day) ([5]; nu/nu, 20 mg/kg/day, day 45, P < 0.01) [%] | inhibition, CALU-6 ([6]; 20 mg/kg/day) [%] | inhibition of the growth of human lung (Calu-6) ([6]; in words) | % Inhibition (day) ([6]; nu/nu, 20 mg/kg/day, day 28, P < 0.0001) [%]
1 | CC(C)c1cc(/C=C(\C#N)C(=O)NCCCc2ccccc2)cc(C(C)C)c1O [Compound 5] | inhibited the "reddening" response and subsequent swelling | 0.7 |  |  |  |  |  |  |  |  |  |  | 
2 | COc1cc2ncnc(Nc3ccc(I)cc3)c2cc1OC [Compound 15, 4-(4-iodophenylamino)-6,7-dimethoxy quinazoline] | inhibited the "reddening" response and subsequent swelling |  |  |  |  |  |  |  |  |  |  |  | 
3 | Cc1oncc1C(=O)Nc1ccc(C(F)(F)F)cc1 [Compound 40, leflunomide] |  | 54 | effectively inhibited the growth | 53 | 53 | effectively inhibited the growth | 53 | 47 | effectively inhibited the growth | 71 | 63.9 | effectively inhibited the growth | 64
